Test systems include T-47D breast; NCI-H23 lung; RXF 393 renal; SF-268 CNS; SW-620 colon; NCI/ADR-RES ovarian; MDA-MB-435; SNB-78 CNS; DMS 114 small cell lung; LXFL 529 NSCLC; KM20L2 colon; M19-MEL melanoma; XF 498 CNS.
What all share (assay): growth of human tumour cells (NCI), 48 h

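Where inhibition never reached the appropriate level, the endpoint shown equals the highest concentration tested. Otherwise, values were interpolated linearly from a five-concentration, 48-hour dose response in 96-well plates. Here, GI50 denotes the concentration required for 50% inhibition of growth. TGI denotes the concentration required for complete inhibition of growth.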 Where a SMILES comes first, the peptide text is derived from it. The star is where a group is joined. Boc = CC(C)(C)OC(=O)*; nBu = CCCC*

For the compound `Nc1nc(SCC(=O)c2ccc(Br)cc2)c2[nH]cnc2n1`, the TGI was 98.7 µM in the test with T-47D breast; over 100 µM in the test on NCI-H23 lung; over 100 µM in the test with RXF 393 renal; over 100 µM in the test on SF-268 CNS; over 100 µM in the test with SW-620 colon; 93.6 µM in the test on NCI/ADR-RES ovarian. The TGI with MDA-MB-435 was over 100 µM.

Take `COc1ccc(CCn2cncn2)cc1`: the TGI in the test on SNB-78 CNS, with DMS 114 small cell lung, in the test with LXFL 529 NSCLC, with NCI-H23 lung, in the test on SF-268 CNS and in the test with KM20L2 colon was over 100 µM throughout. The TGI in the test with SW-620 colon and in the test with M19-MEL melanoma was over 100 µM each time.

As for `Cc1ccc(-c2cn3c(nc4ccccc43)c(/C=C/c3ccco3)n2)cc1`, the TGI in the test with T-47D breast, in the test with NCI-H23 lung, with RXF 393 renal, in the test with SF-268 CNS, in the test with SW-620 colon and with NCI/ADR-RES ovarian was over 100 µM throughout. Moreover, the TGI with MDA-MB-435 is over 100 µM.

For the compound `O=C(Cc1nc2ccccc2[nH]c1=O)c1c[nH]c2ccccc12`, the TGI is 47.6 µM in the test on T-47D breast; over 100 µM in the test on NCI-H23 lung; 46.1 µM in the test with RXF 393 renal; over 100 µM with SF-268 CNS; over 100 µM in the test on SW-620 colon; 28.5 µM with NCI/ADR-RES ovarian. The TGI in the test with MDA-MB-435 is over 100 µM.

Consider `COC(=O)/C=C\C(C#N)(C#N)N=Cc1ccc(OC)cc1`, for which the TGI in the test on T-47D breast is 4.53 µM; in the test on NCI-H23 lung, 28.3 µM; in the test on RXF 393 renal it was 5.42 µM; with SF-268 CNS, 11.5 µM; with SW-620 colon, 14.6 µM; with NCI/ADR-RES ovarian, 9.09 µM. In the test with MDA-MB-435, this compound registered a TGI of 5.44 µM.

In the case of `Oc1ccccc1C=Nc1ccc(-c2nc3ccccc3s2)cc1`, the TGI with T-47D breast is 84.8 µM; in the test on NCI-H23 lung it was over 100 µM; in the test on RXF 393 renal it was over 100 µM; in the test on SF-268 CNS, over 100 µM; in the test with SW-620 colon, over 100 µM; in the test on NCI/ADR-RES ovarian, over 100 µM. This compound also displayed a TGI in the test on MDA-MB-435 of over 100 µM.

In the case of `CC1(C)OC[C@@H]([C@@]2(COC(c3ccccc3)(c3ccccc3)c3ccccc3)CC=CC(=O)O2)O1`, the TGI in the test with T-47D breast was over 100 µM; in the test with NCI-H23 lung, over 100 µM; in the test with RXF 393 renal, 69.5 µM; in the test with SF-268 CNS, over 100 µM; in the test with SW-620 colon, over 100 µM; in the test with MDA-MB-435, over 100 µM.

With `CC(Oc1ccc(Cl)cc1Cl)C(=O)NN1C(=O)CC(=O)N(c2ccccc2)C1=S` (centres undefined), the TGI in the test with T-47D breast, with NCI-H23 lung, in the test with RXF 393 renal, in the test on SF-268 CNS, in the test on SW-620 colon and with NCI/ADR-RES ovarian was over 100 µM throughout. In addition, in the test on MDA-MB-435, the TGI was over 100 µM.

In the case of `COC(=O)c1c(O)ccc2c1c1c(n2Cc2cc(OC)cc(OC)c2)C(=O)c2ccccc2C1=O`, the TGI is 50.5 µM with T-47D breast; 27 µM in the test with NCI-H23 lung; 45.6 µM with RXF 393 renal; 41.2 µM in the test with SF-268 CNS; over 100 µM in the test with SW-620 colon; 21.8 µM in the test with NCI/ADR-RES ovarian. Also, in the test on MDA-MB-435, the TGI was 12.9 µM.

As to `N#C/C(=C(/O)CCl)c1nc2ccccc2o1`, the TGI with T-47D breast was 44.6 µM; in the test with NCI-H23 lung, 25.4 µM; in the test on RXF 393 renal, 3.77 µM; with SF-268 CNS, 8.57 µM; with SW-620 colon, over 100 µM; in the test with NCI/ADR-RES ovarian, 5.4 µM. The compound further had a TGI in the test on MDA-MB-435 of 10.8 µM.

As to `CN(C)c1ccc(-c2ccc(-c3ccc(C(=N)N)cn3)o2)cc1`, the GI50 with T-47D breast is 1.73 µM; with SW-620 colon, 0.774 µM; with MDA-MB-435, 1.24 µM. The TGI came to 3.67 µM with T-47D breast, 2.41 µM with SW-620 colon and 2.5 µM in the test on MDA-MB-435.

For `C/C(C=O)=C/[C@@]1(C)O[C@@H](C)[C@@](C)(O)[C@@H]1O`, the TGI in the test on T-47D breast is over 100 µM; in the test with NCI-H23 lung it was over 100 µM; in the test on RXF 393 renal it was over 100 µM; in the test with SF-268 CNS, 63.7 µM; with SW-620 colon it was over 100 µM; in the test on NCI/ADR-RES ovarian, 56.1 µM. This compound also registered a TGI with MDA-MB-435 of over 100 µM.

As to `C=C1C(O)C2(O)OCC34C(CC5C(C)=CC(=O)C(O)C5(C)C23)OC(=O)C(OC(=O)C/C=C/CCCCCCCC)C14` (centres undefined), the TGI was determined as 0.057 µM in the test on SNB-78 CNS; 0.0205 µM in the test on DMS 114 small cell lung; 0.0351 µM in the test on XF 498 CNS; 0.0815 µM with NCI-H23 lung; 0.0211 µM in the test with RXF 393 renal; 0.035 µM with SF-268 CNS. Also, the TGI in the test on KM20L2 colon was found to be 0.31 µM; in the test on SW-620 colon, 0.0471 µM; in the test on M19-MEL melanoma it was 0.0244 µM; in the test on NCI/ADR-RES ovarian, 2.55 µM.

As to `Cc1cc(-c2nc3c(F)cccc3s2)ccc1N`, the TGI with NCI-H23 lung, in the test with RXF 393 renal, in the test with SF-268 CNS, in the test on SW-620 colon, in the test with NCI/ADR-RES ovarian and in the test with MDA-MB-435 was over 100 µM in each case.

For the compound `CCCCOc1ccc(CC(NC(=O)OC(C)(C)C)C(=O)NC(C)C(=O)NC(Cc2ccccc2)C(=O)NCC(N)=O)cc1` (centres undefined) (Boc-Y(nBu)AFG-NH2; configuration not given here), the TGI in the test with T-47D breast, with NCI-H23 lung, in the test on RXF 393 renal, with SF-268 CNS, in the test with SW-620 colon and in the test with NCI/ADR-RES ovarian was over 100 µM each time. For the same compound, the TGI in the test with MDA-MB-435 was over 100 µM.

For the compound `CCCCCCCCCCCCCCCc1nc(=S)[nH][nH]1`, the TGI with SNB-78 CNS, in the test on DMS 114 small cell lung, in the test on LXFL 529 NSCLC, in the test on XF 498 CNS, with NCI-H23 lung and in the test on RXF 393 renal was over 100 µM throughout. The TGI in the test on SF-268 CNS and with M19-MEL melanoma was over 100 µM in each case.

The values above are taken from PubChem BioAssay (NCI).
